Test results: PubChem BioAssay (NCI)
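Five compound concentrations were applied to cells in 96-well plates for 48 hours; endpoints were derived by simple linear interpolation of the resulting dose-response curve. At the GI50, growth is halved. Definition used: TGI = concentration required for complete inhibition of growth.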

Assays:
Assay in all cases: NCI anticancer screen, dose series, 48 h
HS 578T breast = tested on: HS 578T breast
RPMI-8226 leukemia = tested on: RPMI-8226 leukemia
TK-10 renal = tested on: TK-10 renal
A549 NSCLC = tested on: A549 NSCLC
MDA-MB-435 = tested on: MDA-MB-435
HL-60(TB) leukemia = tested on: HL-60(TB) leukemia
SK-MEL-5 melanoma = tested on: SK-MEL-5 melanoma
SF-268 CNS = tested on: SF-268 CNS
K-562 leukemia = tested on: K-562 leukemia
NCI-H460 lung = tested on: NCI-H460 lung
IGROV1 ovarian = tested on: IGROV1 ovarian
UO-31 renal = tested on: UO-31 renal
SK-OV-3 ovarian = tested on: SK-OV-3 ovarian
EKVX NSCLC = tested on: EKVX NSCLC
SK-MEL-2 melanoma = tested on: SK-MEL-2 melanoma
MCF7 breast = tested on: MCF7 breast
U251 CNS = tested on: U251 CNS
HOP-92 NSCLC = tested on: HOP-92 NSCLC
SF-539 CNS = tested on: SF-539 CNS
T-47D breast = tested on: T-47D breast
HCT-116 colon = tested on: HCT-116 colon
CAKI-1 renal = tested on: CAKI-1 renal
COLO 205 colon = tested on: COLO 205 colon
DU-145 prostate = tested on: DU-145 prostate
MOLT-4 leukemia = tested on: MOLT-4 leukemia
KM12 colon = tested on: KM12 colon
CCRF-CEM leukemia = tested on: CCRF-CEM leukemia
SW-620 colon = tested on: SW-620 colon
UACC-62 melanoma = tested on: UACC-62 melanoma
SK-MEL-28 melanoma = tested on: SK-MEL-28 melanoma
NCI-H23 lung = tested on: NCI-H23 lung
HOP-62 NSCLC = tested on: HOP-62 NSCLC
SN12C renal = tested on: SN12C renal
NCI-H522 lung = tested on: NCI-H522 lung
HT29 colon = tested on: HT29 colon
OVCAR-3 ovarian = tested on: OVCAR-3 ovarian
RXF 393 renal = tested on: RXF 393 renal
NCI-H226 lung = tested on: NCI-H226 lung
M14 melanoma = tested on: M14 melanoma
MALME-3M melanoma = tested on: MALME-3M melanoma
MDA-MB-231 breast = tested on: MDA-MB-231 breast
SNB-75 CNS = tested on: SNB-75 CNS
NCI/ADR-RES ovarian = tested on: NCI/ADR-RES ovarian
OVCAR-5 ovarian = tested on: OVCAR-5 ovarian
SNB-19 CNS = tested on: SNB-19 CNS
SF-295 CNS = tested on: SF-295 CNS
PC-3 prostate = tested on: PC-3 prostate
LOX IMVI melanoma = tested on: LOX IMVI melanoma
A498 renal = tested on: A498 renal
ACHN renal = tested on: ACHN renal
OVCAR-4 ovarian = tested on: OVCAR-4 ovarian
HCC-2998 colon = tested on: HCC-2998 colon
OVCAR-8 ovarian = tested on: OVCAR-8 ovarian
UACC-257 melanoma = tested on: UACC-257 melanoma
786-0 renal = tested on: 786-0 renal
HCT-15 colon = tested on: HCT-15 colon

Cc1ccc(C2SCc3nc4ccccc4n32)cc1 (centres undefined)
TGI (HS 578T breast): 7.17 µM | TGI (RPMI-8226 leukemia): 38.8 µM | TGI (TK-10 renal): 25.1 µM | TGI (A549 NSCLC): > 100 µM | TGI (MDA-MB-435): 5.01 µM | TGI (HL-60(TB) leukemia): 5.94 µM | TGI (SK-MEL-5 melanoma): 5.28 µM | TGI (SF-268 CNS): > 100 µM | TGI (K-562 leukemia): 14.8 µM | TGI (NCI-H460 lung): > 100 µM | TGI (IGROV1 ovarian): > 100 µM | TGI (UO-31 renal): 22.6 µM | TGI (SK-OV-3 ovarian): 85.8 µM | TGI (EKVX NSCLC): > 100 µM | TGI (SK-MEL-2 melanoma): 5.56 µM | TGI (MCF7 breast): 20.3 µM | TGI (U251 CNS): > 100 µM | TGI (HOP-92 NSCLC): 70 µM | TGI (SF-539 CNS): 5.47 µM | TGI (T-47D breast): > 100 µM | TGI (HCT-116 colon): 14 µM | TGI (CAKI-1 renal): 49.7 µM | TGI (COLO 205 colon): 3.45 µM | TGI (DU-145 prostate): > 100 µM | TGI (MOLT-4 leukemia): 15.3 µM | TGI (KM12 colon): 20.6 µM | TGI (CCRF-CEM leukemia): > 100 µM | TGI (SW-620 colon): > 100 µM | TGI (UACC-62 melanoma): 21.3 µM | TGI (SK-MEL-28 melanoma): > 100 µM | TGI (NCI-H23 lung): 24.3 µM | TGI (HOP-62 NSCLC): 23.7 µM | TGI (SN12C renal): 38.6 µM | TGI (NCI-H522 lung): 85.6 µM | TGI (HT29 colon): 79 µM | TGI (OVCAR-3 ovarian): > 100 µM | TGI (RXF 393 renal): 6.33 µM | TGI (NCI-H226 lung): 6.55 µM | TGI (M14 melanoma): > 100 µM | TGI (MALME-3M melanoma): 73.6 µM | TGI (MDA-MB-231 breast): > 100 µM | TGI (SNB-75 CNS): 0.0817 µM | TGI (NCI/ADR-RES ovarian): 12.5 µM | TGI (OVCAR-5 ovarian): > 100 µM | TGI (SNB-19 CNS): > 100 µM | TGI (SF-295 CNS): 7.17 µM | TGI (PC-3 prostate): 21.2 µM | TGI (LOX IMVI melanoma): 40.6 µM | TGI (A498 renal): 9.04 µM | TGI (ACHN renal): > 100 µM | TGI (OVCAR-4 ovarian): 92.8 µM | TGI (HCC-2998 colon): > 100 µM | TGI (OVCAR-8 ovarian): 30 µM | TGI (UACC-257 melanoma): 68.3 µM | TGI (786-0 renal): > 100 µM

O=C(C[n+]1ccn(CC(OCc2ccc(Cl)cc2Cl)c2ccc(Cl)cc2Cl)c1)c1ccc(F)cc1 (centres undefined)
GI50 (HS 578T breast): 1.6 µM | TGI (HS 578T breast): 3.72 µM | GI50 (MDA-MB-435): 1.31 µM | TGI (MDA-MB-435): 2.72 µM | GI50 (SF-268 CNS): 1.44 µM | TGI (SF-268 CNS): 3.09 µM | GI50 (UO-31 renal): 2.43 µM | TGI (UO-31 renal): 17 µM | GI50 (EKVX NSCLC): 1.11 µM | TGI (EKVX NSCLC): 2.4 µM | GI50 (SK-MEL-2 melanoma): 1.65 µM | TGI (SK-MEL-2 melanoma): 3.11 µM | GI50 (HOP-92 NSCLC): 1.27 µM | TGI (HOP-92 NSCLC): 2.84 µM | GI50 (CAKI-1 renal): 2.05 µM | TGI (CAKI-1 renal): 18.3 µM | GI50 (DU-145 prostate): 1.66 µM | TGI (DU-145 prostate): 3.09 µM | GI50 (SK-MEL-28 melanoma): 1.7 µM | TGI (SK-MEL-28 melanoma): 3.12 µM | GI50 (RXF 393 renal): 1.81 µM | TGI (RXF 393 renal): 3.31 µM | GI50 (NCI/ADR-RES ovarian): 16.5 µM | TGI (NCI/ADR-RES ovarian): 57.5 µM | GI50 (SF-295 CNS): 1.63 µM | TGI (SF-295 CNS): 3.19 µM | GI50 (PC-3 prostate): 1.55 µM | TGI (PC-3 prostate): 2.91 µM | GI50 (A498 renal): 1.42 µM | TGI (A498 renal): 3.36 µM | GI50 (HCT-15 colon): 4.65 µM | TGI (HCT-15 colon): 67.6 µM | GI50 (UACC-257 melanoma): 1.43 µM | TGI (UACC-257 melanoma): 2.8 µM
